We go through 26 molecules from patent US8114867B2, “Oxazolidinone antibiotic derivatives” (Actelion Pharmaceuticals Ltd, priority 2007, dated 2012).

The test has as its system S. aureus 29213. The experiment in a line: MIC by broth microdilution (NCCLS), S. aureus 29213. It counts as cell-based. Conditions: strain S. aureus 29213, cation-adjusted Mueller-Hinton Broth, pH 7.2-7.3; for MIC: Staphylococcus aureus. Here is the method:
These assays have been performed following the description given in “Methods for dilution Antimicrobial Susceptibility Tests for Bacteria that Grow Aerobically, 4th ed.; Approved standard: NCCLS Document M7-A4; National Committee for Clinical Laboratory Standards: Villanova, Pa., USA, 1997”. Minimal inhibitory concentrations (MICs; mg/l) were determined in cation-adjusted Mueller-Hinton Broth (BBL) by a microdilution method following NCCLS guidelines (National Committee for Clinical Laboratory Standards. Methods for Dilution Antimicrobial Susceptibility). The pH of the test medium was 7.2-7.3.
In general terms: Dilution methods test growth across graded concentrations, often in twofold steps.

In general, MIC refers to the lowest concentration that inhibits growth of the organism. Low readings indicate greater potency, high ones weaker potency.

≈ marks a conversion by molar mass, not a printed value.

As to `COc1ccc2nccc(CCCCC[C@@H]3CN(c4ccc5c(c4)NC(=O)CS5)C(=O)O3)c2n1` [Example 125, 6-{(R)-5-[5-(6-methoxy-[1,5]naphthyridin-4-yl)-pentyl]-2-oxo-oxazolidin-3-yl}-4H-benzo[1,4]thiazin-3-one], the MIC was not above 0.063 µg/mL.

`COC(=O)CCN(CCCC1CN(c2ccc3c(c2)NC(=O)CS3)C(=O)O1)Cc1ccnc2ccc(OC)nc12` (racemic) [Example 171, rac-3-((6-methoxy-[1,5]naphthyridin-4-ylmethyl)-{3-[2-oxo-3-(3-oxo-3,4-dihydro-2H-benzo[1,4]thiazin-6-yl)-oxazolidin-5-yl]-propyl}-amino)-propionic acid methyl ester] returned a minimum inhibitory concentration (MIC) not above 0.063 µg/mL.

For the molecule `COc1ccc2ncc(F)c(CN(CCO)CCC[C@@H]3CN(c4ccc5c(c4)NC(=O)CO5)C(=O)O3)c2n1` [Example 179, 6-((R)-5-{3-[(3-fluoro-6-methoxy-[1,5]naphthyridin-4-ylmethyl)-(2-hydroxy-ethyl)-amino]-propyl}-2-oxo-oxazolidin-3-yl)-4H-benzo[1,4]oxazin-3-one], the minimum inhibitory concentration (MIC) is not above 0.063 µg/mL.

On to `COc1ccc2nccc(C(=O)CCCCC3CN(c4ccc5c(c4)OCCO5)C(=O)O3)c2n1` (racemic) [Example 63, rac-3-(2,3-dihydro-benzo[1,4]dioxin-6-yl)-5-[5-(6-methoxy-[1,5]naphthyridin-4-yl)-5-oxo-pentyl]-oxazolidin-2-one], for which the minimal inhibitory concentration (MIC) was not above 0.063 µg/mL.

For the molecule `COc1cnc2cccc(CCC(=O)NC[C@@H]3CN(c4ccc5c(c4)NC(=O)CS5)C(=O)O3)c2c1` [Example 28, 3-(3-methoxy-quinolin-5-yl)-N-[(R)-2-oxo-3-(3-oxo-3,4-dihydro-2H-benzo[1,4]thiazin-6-yl)-oxazolidin-5-ylmethyl]-propionamide], the MIC was not above 0.063 µg/mL.

Consider `COc1cnc2cccc(C(O)CN(C)C[C@@H](O)[C@H]3CN(c4ccc5c(c4)OCCO5)C(=O)O3)c2n1` (relative stereo) [Example 100, (R*)-3-(2,3-dihydro-benzo[1,4]dioxin-6-yl)-(R*)-5-(1-hydroxy-2-{[(RS)-2-hydroxy-2-(3-methoxy-quinoxalin-5-yl)-ethyl]-methyl-amino}-ethyl)-oxazolidin-2-one], for which the minimum inhibitory concentration (MIC) was not above 0.063 µg/mL.

Regarding `COc1ccc2nccc(/C=C/C(=O)N(C)C[C@@H]3CN(c4ccc(Br)c(F)c4)C(=O)O3)c2n1` [Example 22, (E)-N-[(R)-3-(4-bromo-3-fluoro-phenyl)-2-oxo-oxazolidin-5-ylmethyl]-3-(6-methoxy-[1,5]naphthyridin-4-yl)-N-methyl-acrylamide], the MIC was not above 0.063 µg/mL.

In the case of `COc1ccc2nccc(CC[C@@H](N)CC[C@@H]3CN(c4ccc5c(c4)OCCO5)C(=O)O3)c2n1` (racemic) [Example 116, (RS)-5-[(RS)-3-amino-5-(6-methoxy-[1,5]naphthyridin-4-yl)-pentyl]-3-(2,3-dihydro-benzo[1,4]dioxin-6-yl)-oxazolidin-2-one], the minimum inhibitory concentration (MIC) is not above 0.063 µg/mL.

The molecule `COc1cnc2cccc(CCCN(C)C[C@@H]3CN(c4ccc(C)c(F)c4)C(=O)O3)c2c1` [Example 43, (R)-3-(3-fluoro-4-methyl-phenyl)-5-({[3-(3-methoxy-quinolin-5-yl)-propyl]-methyl-amino}-methyl)-oxazolidin-2-one] gave an MIC not above 0.063 µg/mL.

`CCc1ccc(N2C[C@@H](CN(C)C(=O)/C=C/c3ccnc4ccc(OC)nc34)OC2=O)cc1` [Example 14, (E)-N-[(R)-3-(4-ethyl-phenyl)-2-oxo-oxazolidin-5-ylmethyl]-3-(6-methoxy-[1,5]naphthyridin-4-yl)-N-methyl-acrylamide] had a minimum inhibitory concentration (MIC) not above 0.063 µg/mL.

`COc1ccc2ncc(F)c(C(O)CCCCC3CN(c4ccc5c(c4)OCCO5)C(=O)O3)c2n1` (centres unmarked) [Example 62, 3-(2,3-dihydro-benzo[1,4]dioxin-6-yl)-5-[5-(3-fluoro-6-methoxy-[1,5]naphthyridin-4-yl)-5-hydroxy-pentyl]-oxazolidin-2-one] yielded an MIC not above 0.063 µg/mL.

With `COc1ccc2nccc(CCN(C)C[C@@H](O)[C@H]3CN(c4ccc5c(c4)OCCO5)C(=O)O3)c2n1` (relative stereo) [Example 99, (R*)-3-(2,3-dihydro-benzo[1,4]dioxin-6-yl)-5-((R*)-1-hydroxy-2-{[2-(6-methoxy-[1,5]naphthyridin-4-yl)-ethyl]-methyl-amino}-ethyl)-oxazolidin-2-one], the MIC is not above 0.063 µg/mL.

As for `COc1ccc2nccc(NCCNC[C@@H]3CN(c4ccc5c(c4)NC(=O)CS5)C(=O)O3)c2n1` [Example 201, 6-((R)-5-{[2-(6-methoxy-[1,5]naphthyridin-4-ylamino)-ethylamino]-methyl}-2-oxo-oxazolidin-3-yl)-4H-benzo[1,4]thiazin-3-one], the MIC is not above 0.063 µg/mL.

The molecule `COc1cnc2cccc(/C=C/C(=O)NC[C@@H]3CN(c4ccc5c(c4)OCCO5)C(=O)O3)c2n1` [Example 5, (E)-N-[(R)-3-(2,3-dihydro-benzo[1,4]dioxin-6-yl)-2-oxo-oxazolidin-5-ylmethyl]-3-(3-methoxy-quinoxalin-5-yl)-acrylamide] gave an MIC not above 0.063 µg/mL.

On to `COc1ccc2nccc(COCCCC3CN(c4ccc5c(c4)OCCO5)C(=O)O3)c2c1` (racemic) [Example 120, rac-3-(2,3-dihydro-benzo[1,4]dioxin-6-yl)-5-[3-(6-methoxy-quinolin-4-ylmethoxy)-propyl]-oxazolidin-2-one], for which the minimal inhibitory concentration (MIC) was determined as 0.125 µg/mL (≈ 0.277 µM).

In turn, `COc1ccc2nccc(CCNCCC3CN(c4ccc5c(c4)OCCO5)C(=O)O3)c2n1` (racemic) [Example 72, (rac)-3-(2,3-dihydro-benzo[1,4]dioxin-6-yl)-5-{2-[2-(6-methoxy-[1,5]naphthyridin-4-yl)-ethylamino]-ethyl}-oxazolidin-2-one] yielded an MIC not above 0.063 µg/mL.

Take `COc1ccc2c(OC)ccc(CNCCCC3CN(c4ccc5c(c4)NC(=O)CS5)C(=O)O3)c2c1` (racemic) [Example 169, rac-6-(5-{3-[(4,7-dimethoxy-naphthalen-1-ylmethyl)-amino]-propyl}-2-oxo-oxazolidin-3-yl)-4H-benzo[1,4]thiazin-3-one]: the minimum inhibitory concentration (MIC) is not above 0.063 µg/mL.

Take `COc1ccc2nccc(CCCC[C@@H](O)[C@H]3CN(c4ccc5c(c4)OCCO5)C(=O)O3)c2n1` (relative stereo) [Example 111, (R*)-3-(2,3-dihydro-benzo[1,4]dioxin-6-yl)-5-[(R*)-1-hydroxy-5-(6-methoxy-[1,5]naphthyridin-4-yl)-pentyl]-oxazolidin-2-one]: the minimal inhibitory concentration (MIC) was not above 0.063 µg/mL.

With `CCC(=O)N(CCCc1ccnc2ccc(OC)nc12)C[C@@H]1CN(c2ccc3c(c2)NC(=O)CS3)C(=O)O1` [Example 38, N-[3-(6-methoxy-[1,5]naphthyridin-4-yl)-propyl]-N-[(R)-2-oxo-3-(3-oxo-3,4-dihydro-2H-benzo[1,4]thiazin-6-yl)-oxazolidin-5-ylmethyl]-propionamide], the minimum inhibitory concentration (MIC) is not above 0.063 µg/mL.

`COc1ccc2nccc(CCNC[C@@H](O)[C@H]3CN(c4ccc5c(c4)OCCO5)C(=O)O3)c2n1` (relative stereo) [Example 97, (R*)-3-(2,3-dihydro-benzo[1,4]dioxin-6-yl)-5-{(R*)-1-hydroxy-2-[2-(6-methoxy-[1,5]naphthyridin-4-yl)-ethylamino]-ethyl}-oxazolidin-2-one] registered an MIC not above 0.063 µg/mL.

In turn, `COc1ccc2ncc(F)c(CNCC[C@@H](N)[C@@H]3CN(c4ccc5c(c4)OCCO5)C(=O)O3)c2n1` (relative stereo) [Example 107, (S*)-5-{(R*)-1-amino-3-[(3-fluoro-6-methoxy-[1,5]naphthyridin-4-ylmethyl)-amino]-propyl}-3-(2,3-dihydro-benzo[1,4]dioxin-6-yl)-oxazolidin-2-one] showed an MIC not above 0.063 µg/mL.

On to `COc1ccc2nccc(NC(=O)CNC[C@@H]3CN(c4ccc5c(c4)NC(=O)CS5)C(=O)O3)c2n1` [Example 91, N-(6-methoxy-[1,5]naphthyridin-4-yl)-2-{[(R)-2-oxo-3-(3-oxo-3,4-dihydro-2H-benzo[1,4]thiazin-6-yl)-oxazolidin-5-ylmethyl]-amino}-acetamide], for which the MIC is not above 0.063 µg/mL.

In turn, `COc1ccc2nccc(CC(N)CNC[C@@H]3CN(c4ccc5c(c4)NC(=O)CS5)C(=O)O3)c2n1` (mixture of isomers) [Example 89, 6-((R)-5-{[(2RS)-2-amino-3-(6-methoxy-[1,5]naphthyridin-4-yl)-propylamino]-methyl}-2-oxo-oxazolidin-3-yl)-4H-benzo[1,4]thiazin-3-one] showed a minimal inhibitory concentration (MIC) of 0.125 µg/mL.

Molecule `COC(=O)c1ccc(CNCCCC2CN(c3ccc4c(c3)NC(=O)CS4)C(=O)O2)c2nc(OC)ccc12` (racemic) [Example 156, rac-2-methoxy-8-({3-[2-oxo-3-(3-oxo-3,4-dihydro-2H-benzo[1,4]thiazin-6-yl)-oxazolidin-5-yl]-propylamino}-methyl)-quinoline-5-carboxylic acid methyl ester] displayed an MIC not above 0.063 µg/mL.

In the case of “6-((RS)-5-{[(2R,3R)-2,3-dihydroxy-3-(6-methoxy-[1,5]naphthyridin-4-yl)-propylamino]-methyl}-2-oxo-oxazolidin-3-yl)-4H-benzo[1,4]thiazin-3-one and 6-((RS)-5-{[(2S,3S)-2,3-dihydroxy-3-(6-methoxy-[1,5]naphthyridin-4-yl)-propylamino]-methyl}-2-oxo-oxazolidin-3-yl)-4H-benzo[1,4]thiazin-3-one [Example 52]”, the “MIC S. aureus 29213” value was 0.25 µg/mL.

Molecule `COc1ccc2nccc(/C=C/CNC[C@@H]3CN(c4ccc5c(c4)OCCO5)C(=O)O3)c2n1` [Example 29, (R)-3-(2,3-dihydro-benzo[1,4]dioxin-6-yl)-5-{[(E)-3-(6-methoxy-[1,5]naphthyridin-4-yl)-allylamino]-methyl}-oxazolidin-2-one] returned an MIC not above 0.063 µg/mL.
